{"source": "patent US20080206761A1", "about": "“Ex Vivo Gene Expression in Whole Blood as a Model of Assessment of Individual Variation to Dietary Supplements” (priority 2005, published 2008)", "test_system": "TNFSF15 mRNA", "experiment": "TNFSF15 mRNA in whole blood after dietary component and heat-aggregated IgG stimulation", "format": "cell-based, human", "protocol": "The mRNA and cDNA were prepared from the whole blood that was exposed to the dietary components, as well as the whole blood which remained unexposed. In brief, home-made 96-well filterplates were placed over collection plates, and 150 μl 5 mM Tris, pH 7.4, was applied. Following centrifugation at 120×g for 1 min at 4° C., 50 μl of blood samples were applied to each well and immediately centrifuged at 120×g for 2 min at 4° C., followed by washing of each well with 300 μl PBS once with centrifugation at 2000×g for 5 min at 4° C. Then, 60 μl stock lysis buffer, containing for example 0.5% N-Lauroylsarcosine, 4×SSC, 10 mM Tris HCl, pH 7.4, 1 mM EDTA, 0.1% IGEPAL CA-630, and 1.791 M guanidine thiocyanate, supplemented with 1% 2-mercaptoethanol (Bio Rad, Hercules, Calif., USA), 0.5 mg/ml proteinase K (Pierce, Rockford, Ill., USA), 0.1 mg/ml salmon sperm DNA (5 Prime Eppendorf/Brinkmann, Westbury, N.Y., USA), 0.1 mg/ml E. coli tRNA (Sigma), a cocktail of 10 mM each of the specific reverse primers shown in Table 2, and standard RNA34 oligonucleotides, were applied to the filterplates, followed by incubation at 37° C. for 10 min. The filterplates were then placed over oligo(dT)-immobilized microplates (GenePlate, RNAture), and centrifuged at 2000×g for 5 min at 4° C. Following overnight storage at 4° C., the microplates were washed with 100 μl plain lysis buffer 3 times, followed by 150 μl of wash buffer (0.5 M NaCl, 10 mM Tris, pH 7.4, 1 mM EDTA) 3 times at 4° C. […] The Ct was determined by analytical software (SDS, ABI).\nIn this embodiment, heparinized whole blood of two individuals was pre-incubated with various dietary supplements at 37° C. for 30 minutes (at the same blood concentrations as in Embodiment 2), then stimulated with 1.2 μL of heat-aggregated IgG. […] The level of TNFSF3 and TNFSF15 mRNA was then assessed using the method described in Embodiment 1, with the exception that SYBR Green PCR was used to quantitate the mRNA. […]"}
{"smiles": "CC1=C(/C=C/C(C)=C/C=C/C(C)=C/CO)C(C)(C)CCC1", "note": "[VA, vitamin A]", "values": [{"measurement": "effect on HAG-induced TNFSF15 expression, in words", "setting": "FIG. 6, two cases, vitamin A 100 nmol/L", "value": "eliminated the effect on HAG in one case (case 1)"}, {"measurement": "baseline expression of TNFSF15, in words", "setting": "FIG. 6, vitamin A 100 nmol/L", "value": "decreased the baseline expression of TNFSF-15"}, {"measurement": "effect on HAG-induced TNFSF15 expression, in words", "setting": "FIG. 7 follow-up, seven cases overall, vitamin A only", "value": "exhibited an inhibitory action on HAG-induced TNFSF15 expression in case 1, and in two of seven cases overall"}]}
